# Experimental data from patent publication US20250213569A1, “METHODS AND COMPOSITIONS FOR MEASURING AND INHIBITING EXONUCLEASE ACTIVITY” (priority 2020, published 2025).
# Read-outs that look alike come from different tables or passages of the source.
# What was measured:
# [1] = molecular target: SARS-CoV2 NSP14/NSP10 exonuclease (Severe acute respiratory syndrome coronavirus 2 (2019-nCoV) (SARS-CoV-2), UniProt P0DTD1); assay: biochemical; set-up: inhibition of NSP14/NSP10 complex exonuclease activity: dose or concentration left out as unconfirmed; settings: for Inhibitory activity present: class symbols − to +++++, key not given
# A549 cells [2] = assay: AlamarBlue viability assay; settings: A549 human lung cells, 48 hours
# [3] = Solubility issue (Table 2)
# NSP14/10 complex = NSP14/10 complex (Severe acute respiratory syndrome coronavirus 2 (2019-nCoV) (SARS-CoV-2), UniProt P0DTD1); assay: Gel electrophoresis assay of Oligo B digestion; type: biochemical; settings: for NSP14/NSP10 complex inhibitory potential (gel): concentrations as in FIG. 55
# SARS-CoV2 = type: cell-based; settings: A549-ACE2 cells; #112: 60 μM, #77: […] μM, #68: 25 μM
# HCoV-OC43 = HCoV-OC43 infection of HMC3 cells, combination with remdesivir; type: cell-based; settings: #112: 60 μM, #77: […] μM, #68: 25 μM
# A549 cells [4] = tested on: A549 cells
# unbound NSP10 = assay: FRET-based activity assay, non-specific background of unbound NSP10; type: biochemical; settings: dose-response, FIG. 11B
# [5] = Oligo D, linear reaction range, less than 60% of total substrate consumed at readout, read-out: half maximal inhibitory concentration (IC50)
# [6] = Table 2, read-out: SARS-CoV2 IC50
structure (smiles),measurement,setting,value
O=c1oc2ccccc2c(O)c1Cc1c(O)c2ccccc2oc1=O [Dicoumarol],IC50,[1]; [5],> 500 µM
"O=C(O)c1cc2cc(-c3ccccc3)ccc2[nH]c1=O [Compound 53, 2-Oxo-6-phenyl-1H-quinoline-3-carboxylic acid]",Toxicity at IC50,A549 cells [2],no
"O=c1c2[nH]c3ccccc3c2ncn1CCc1ccc(F)cc1 [Compound 105, 3-[2-(4-Fluorophenyl)ethyl]-3,5-dihydro-4H-pyrimido[5,4-b]indol-4-one]",IC50,[1]; [6],217 µM
"CC1(C)CCc2c(O)ccc(C(=O)/C=C/c3ccc(O)cc3)c2O1 [Compound 75, Isodorsmanin A]",Toxicity at IC50,A549 cells [2],Yes
"O=C(O)c1ccc2ccc(/C=C/c3cc(Br)c(O)c(Br)c3)nc2c1O [Compound 88, 2-(3,5-dibromo-4-hydroxystyryl)-8-hydroxyquinoline-7-carboxylic acid]",Toxicity at IC50,A549 cells [2],No
"O=C(NCc1ncc[nH]1)c1c(O)cnc2ccccc12 [Compound 31, 3-Hydroxy-N-[(1H-imidazol-2-yl)methyl]quinoline-4-carboxamide]",Toxicity at IC50,A549 cells [2],No
"CC(C)=CCc1c(O)ccc(C(=O)/C=C/c2ccc(O)cc2O)c1O [Compound 74, Morachalcone A]",Toxicity at IC50,A549 cells [2],Yes
"COc1ccc2nc(O)c(-c3noc(-c4ccc(F)cc4)n3)cc2c1 [Compound 109, 3-(5-(4-Fluorophenyl)-1,2,4-oxadiazol-3-yl)-6-methoxyquinolin-2-ol]",Solubility issue,[3],No
"CC(C)=CCc1c(O)ccc(C(=O)/C=C/c2ccc(O)c(O)c2)c1O [Compound 72, Corylifol B]",Inhibitory activity present,[1],+++/ ++++
CC(C)=CCc1c(O)ccc(C(=O)/C=C/c2ccc(O)cc2)c1O [Isobavachalcone],IC50,[1]; [5],16.6 µM
"CC(C)=CCOc1ccc(/C=C/C(=O)c2ccc(OCC=C(C)C)cc2OCC(=O)O)cc1 [Compound 68, Sofalcone, reference compound]",IC50,[1]; read-out: SARS-CoV2 IC50,22 ± 6.02 µM
same,NSP14/NSP10 complex inhibitory potential (gel),NSP14/10 complex,indeed novel NSP14 inhibitors
same,lowering of the EC50 values of remdesivir,SARS-CoV2,~5 fold
same,lowering of the EC50 values of remdesivir,HCoV-OC43,~5 fold
same,Toxicity at IC50,A549 cells [4],Some
CC(C)=CCc1c2c(c3occ(-c4ccc(O)c(O)c4)c(=O)c3c1O)C=CC(C)(C)O2 [Pomiferin],IC50,[1]; [5],5.9 µM
"O=P(O)(O)c1ccc2ccc(CCc3ccc(O)c(O)c3)nc2c1O [Compound 100, 2-(3,4-dihydroxyphenethyl)-8-hydroxyquinoline-7-phosphonic acid]",Toxicity at IC50,A549 cells [2],No
"O=C(O)c1ccc2nc(/C=C/c3ccc(O)c(O)c3)ccc2c1O [Compound 99, 2-(3,4-dihydroxystyryl)-5-hydroxyquinoline-6-carboxylic acid]",Toxicity at IC50,A549 cells [2],Yes
"O=C(O)c1ccc2ccc(/C=C/c3ccc(O)c(O)c3)nc2c1O [Compound 79, 2-(3,4-dihydroxystyryl)-8-hydroxyquinoline-7-carboxylic acid]",Toxicity at IC50,A549 cells [2],No
"Cc1c(S(=O)(=O)[O-])oc2c1C(=O)C(=O)c1c-2ccc2c1CCCC2(C)C.[Na+] [Compound 60, Tanshinone IIA sulfonate]",Solubility issue,[3],no
same,Toxicity at IC50,A549 cells [2],no
"Cc1ccc2ccc(C(=O)O)c(O)c2n1 [Compound 78, 2-methyl-8-hydroxyquinoline-7-carboxylic acid]",Toxicity at IC50,A549 cells [2],No
"CC(C)=CCc1c2c(c3occ(-c4ccc(O)c(O)c4)c(=O)c3c1O)C=CC(C)(C)O2 [Compound 69, Pomiferin]",Toxicity at IC50,A549 cells [4],Yes
"O=C(/C=C/c1ccc(O)cc1)c1c(O)cc(O)cc1O [Compound 73, Naringenin chalcone]",Toxicity at IC50,A549 cells [2],Yes
"O=C(O)c1c(O)c(Cc2ccc(Cl)cc2)nc2c3c(ccc12)CCCC3 [Compound 59, 2-(4-Chlorobenzyl)-3-hydroxy-7,8,9,10-tetrahydrobenzo(H)quinoline-4-carboxylic acid]",Toxicity at IC50,A549 cells [2],yes
"O=C(O)c1cc(Cc2ccc(O)c(C(=O)O)c2)ccc1O [Compound 30, 5,5′-Methylenedisalicylic acid]",Toxicity at IC50,A549 cells [2],No
"CC(C)=CCc1cc(C(=O)/C=C/c2ccc(O)cc2)c(O)cc1O [Compound 57, Bavachalcone]",Toxicity at IC50,A549 cells [2],yes
"COc1cc(O)c(CC=C(C)C)c(O)c1C(=O)/C=C/c1ccc(O)cc1 [Compound 58, Xanthohumol]",Toxicity at IC50,A549 cells [2],yes
"CC(C)=CCc1c(O)cc(O)c(C(=O)/C=C/c2ccc(O)cc2)c1O [Compound 71, Desmethylxanthohumol]",Inhibitory activity present,[1],+++/ ++++
same,Toxicity at IC50,A549 cells [2],Yes
"O=C(NCc1ccc(F)cc1)C1C(=O)N(O)C(=O)c2cc(C(F)(F)F)ccc21 (stereo not shown) [Compound 112, 7-trifluoromethyl-N-(4-fluorobenzyl)-2-hydroxy-1,3-dioxo-4H-isoquinoline-4-carboxamide]",NSP14/NSP10 complex inhibitory potential (gel),NSP14/10 complex,indeed novel NSP14 inhibitors
same,lowering of the EC50 values of remdesivir,SARS-CoV2,~5 fold
same,lowering of the EC50 values of remdesivir,HCoV-OC43,~5 fold
"O=c1oc2ccccc2c(O)c1Cc1c(O)c2ccccc2oc1=O [Compound 23, Dicoumarol, reference compound]",IC50,[1]; [6],> 500 µM
"Oc1ccc(/C=C/c2ccc3cccc(O)c3n2)cc1O [Compound 92, 2-(3,4-dihydroxystyryl)-8-hydroxyquinoline]",Toxicity at IC50,A549 cells [2],Yes
"O=C1Cc2ccccc2C(=O)N1O [Compound 13, 2-Hydroxyisoquinoline-1,3(2H,4H)-dione]",inhibition of NSP14/NSP10 complex exonuclease activity,[1]; Oligo E (TexasRed-BHQ2),showed inhibition
same,"Inhibition of NSP14/10 (Oligo B digestion, gel)",NSP14/10 complex; 500 μM versus 100 μM,greater at higher (500 μM) versus lower (100 μM) concentrations
same,inhibition of non-specific background of NSP10,unbound NSP10,did not inhibit the non-specific background of NSP10
same,Toxicity at IC50,A549 cells [2],Yes
"O=C(O)c1ccc2ccc(CCc3ccc(O)c(O)c3)nc2c1O [Compound 94, 2-(3,4-dihydroxyphenethyl)-8-hydroxyquinoline-7-carboxylic acid]",Toxicity at IC50,A549 cells [2],No
"O=C(c1ccc(F)c(F)c1)c1ccc2ccc(/C=C/c3ccc(O)c(O)c3)nc2c1O [Compound 93, 7-(3,4-difluorobenzoyl)-2-(3,4-dihydroxyvinyl)-8-hydroxyquinoline]",Toxicity at IC50,A549 cells [2],Yes
"O=C(O)c1ccc2ccc(/C=C/c3ccc(F)c(F)c3)nc2c1O [Compound 89, 2-(3,4-difluorostyryl)-8-hydroxyquinoline-7-carboxylic acid]",Toxicity at IC50,A549 cells [2],Yes
"O=C(/C=C/c1ccc(O)c(O)c1)c1ccc(O)c(O)c1O [Compound 76, Okanin]",Toxicity at IC50,A549 cells [2],Yes
"Oc1ccc(CC2NCCc3cc(O)c(O)cc32)cc1O (stereo not shown) [Compound 54, Tetrahydropapaveroline]",NSP14/NSP10 complex inhibitory potential (gel),NSP14/10 complex,indeed novel NSP14 inhibitors
same,Solubility issue,[3],no
same,Toxicity at IC50,A549 cells [2],no
CC(C)=CCOc1ccc(/C=C/C(=O)c2ccc(OCC=C(C)C)cc2OCC(=O)O)cc1 [Sofalcone],IC50,[1]; [5],28.8 µM
"CC(C)=CCc1c(O)ccc(C(=O)/C=C/c2ccc(O)cc2)c1O [Compound 77, Isobavachalcone]",IC50,[1]; read-out: SARS-CoV2 IC50,17.4 ± 1.39 µM
same,NSP14/NSP10 complex inhibitory potential (gel),NSP14/10 complex,indeed novel NSP14 inhibitors
same,lowering of the EC50 values of remdesivir,SARS-CoV2,~5 fold
same,lowering of the EC50 values of remdesivir,HCoV-OC43,~5 fold
same,Toxicity at IC50,A549 cells [2],some
"CC(C)c1cc(Cc2cc(C(C)C)cc(C(=O)O)c2O)c(O)c(C(=O)O)c1 [Compound 65, 3-[(3-Carboxy-2-hydroxy-5-propan-2-ylphenyl)methyl]-2-hydroxy-5-propan-2-ylbenzoic acid]",Toxicity at IC50,A549 cells [2],no
"O=c1cc(-c2ccc(O)cc2)oc2cc(O)c(O)c(O)c12 [Compound 62, Scutellarein]",Toxicity at IC50,A549 cells [2],no
"O=C(O)c1cc(/C=C/c2ccc3ccc(C(=O)O)c(O)c3n2)ccc1O [Compound 90, 2-(3-carboxy-4-hydroxystyryl)-8-hydroxyquinoline-7-carboxylic acid]",Toxicity at IC50,A549 cells [2],No
